For orientation: melting point means the temperature, or range, at which the solid turns liquid.

This passage reports melting point results from US20060004028A1, “Novel PARP inhibitor” (MOCHIDA PHARMACEUTICAL CO., LTD., priority 2002, published 2006).

Bounds are passed on as bounds.

Compound `COc1ccc(C2NC(=O)c3cc(F)cc4c3N2CCC4=O)cc1` (stereo not shown) [Example 24, 9-fluoro-3-(4-methoxyphenyl)-6,7-dihydro-3H,5H-pyrido[3,2,1-ij]quinazoline-1,7(2H)-dione] gave a melting point of 164.7 to 166 °C.
Compound `COc1ccc(C2NC(=O)c3cccc4c3N2CCC4=O)cc1Br` (stereo not shown) [Example 27, 3-(3-bromo-4-methoxyphenyl)-6,7-dihydro-3H,5H-pyrido[3,2,1-ij]quinazoline-1,7(2H)-dione] displayed a melting point of 212.8 to 215.7 °C.
Compound `CON=C1CCN2c3c(cccc31)C(=O)NC2c1ccc(OC(C)C)cc1` (stereo not shown) [Example 64, 3-(4-isopropoxyphenyl)-7-methoxyimino-6,7-dihydro-3H,5H-pyrido[3,2,1-ij]quinazoline-1(2H)-one] gave a melting point of 167.4 to 168.9 °C.
As for `O=C1NC(c2ccc(Br)cc2)N2CCC(=NO)c3cccc1c32` (stereo not shown) [Example 79, 3-(4-bromophenyl)-7-hydroxyimino-6,7-dihydro-3H,5H-pyrido[3,2,1-ij]quinazoline-1(2H)-one], the figure is 230 to 236.9 °C; as for `N#Cc1ccc(C2NC(=O)c3cccc4c3N2CCC4=NO)cc1` (stereo not shown) [Example 74, 3-(4-cyanophenyl)-7-hydroxyimino-6,7-dihydro-3H,5H-pyrido[3,2,1-ij]quinazoline-1(2H)-one], over 250 °C; as for `CON=C1CCN2c3c(cccc31)C(=O)NC2c1ccc(C(F)(F)F)cc1` (stereo not shown) [Example 62, 7-methoxyimino-3-(4-trifluoromethylphenyl)-6,7-dihydro-3H,5H-pyrido[3,2,1-ij]quinazoline-1(2H)-one], 199.4 to 207.2 °C.
Under `COc1cc(C2NC(=O)c3cccc4c3N2CCC4=O)ccc1F` (stereo not shown) [Example 36, 3-(4-fluoro-3-methoxyphenyl)-6,7-dihydro-3H,5H-pyrido[3,2,1-ij]quinazoline-1,7(2H)-dione] stands 171 to 172.9 °C.
The compound `O=C1CCN2c3c1cccc3C(=O)NC2c1ccsc1` (stereo not shown) [Example 46, 3-(3-thienyl)-6,7-dihydro-3H,5H-pyrido[3,2,1-ij]quinazoline-1,7(2H)-dione] yielded a melting point of 190.9 to 193.4 °C.
Turning to `COc1cc(C2NC(=O)c3cccc4c3N2CCC4=NO)cc(Br)c1OC` (stereo not shown) [Example 56, 3-(3-bromo-4,5-dimethoxyphenyl)-7-hydroxyimino-6,7-dihydro-3H,5H-pyrido[3,2,1-ij]quinazoline-1(2H)-one], the melting point lay in the range of 133.9 to 146.8 °C.
Under `COc1ccc(C2NC(=O)c3cccc4c3N2CCC4=O)c(C)c1` (stereo not shown) [Example 49, 3-(2-methyl-4-methoxyphenyl)-6,7-dihydro-3H,5H-pyrido[3,2,1-ij]quinazoline-1,7(2H)-dione] stands 100.2 to 101.1 °C; under `O=C1NC(c2ccc(OCCO)cc2)N2CCC(=NO)c3cccc1c32` (stereo not shown) [Example 60, 7-hydroxyimino-3-(4-hydroxyethoxyphenyl)-6,7-dihydro-3H,5H-pyrido[3,2,1-ij]quinazoline-1(2H)-one], 183.9 to 186.3 °C.
Turning to `COc1ccc(C2NC(=O)c3cccc4c3N2CCC4=NO)cc1` (stereo not shown) [Example 3, 7-hydroxyimino-3-(4-methoxyphenyl)-6,7-dihydro-3H,5H-pyrido[3,2,1-ij]quinazoline-1(2H)], the melting point lay within 200.8 to 211.9 °C.
As for `COc1ccc(C2NC(=O)c3cccc4c3N2CCC4NC(=O)c2ccc(N(C)C)cc2)cc1` (stereo not shown) [Example 132, 7-(4-N,N-dimethylamino)benzoylamino-3-(4-methoxyphenyl)-6,7-dihydro-3H,5H-pyrido[3,2,1-ij]quinazoline-1(2H)-one], the figure is 201.4 to 202.9 °C; as for `O=C1NC(c2ccc([N+](=O)[O-])cc2)N2CCC(=NO)c3cccc1c32` (stereo not shown) [Example 73, 7-hydroxyimino-3-(4-nitrophenyl)-6,7-dihydro-3H,5H-pyrido[3,2,1-ij]quinazoline-1(2H)-one], 220 to 224.7 °C.
As for `CN(C)c1ccc(C2NC(=O)c3cccc4c3N2CCC4=O)cc1` (stereo not shown) [Example 48, 3-(4-N,N-dimethylaminophenyl)-6,7-dihydro-3H,5H-pyrido[3,2,1-ij]quinazoline-1,7(2H)-dione], the figure is 198.7 to 202.6 °C; as for `NC1CCN2c3c(cccc31)C(=O)NC2c1ccc(C(=O)O)cc1` (stereo not shown) [Example 127, 7-amino-3-(4-carboxyphenyl)-6,7-dihydro-3H,5H-pyrido[3,2,1-ij]quinazolinone-1-(2H)-one], 232.3 to 238.7 °C.
Turning to `COc1ccc(C2NC(=O)c3cccc4c3N2CCC4N(C)C)cc1` (stereo not shown) [Example 135, 7-dimethylamino-3-(4-methoxyphenyl)-6,7-dihydro-3H,5H-pyrido[3,2,1-ij]quinazoline-1(2H)-one], the melting point was in the range of 188.2 to 192.4 °C.
In turn, `COc1ccc(C2NC(=O)c3cccc4c3N2CCC4NC(=O)CN(C)C)cc1` (stereo not shown) [Example 136, 7-(N,N-dimethylaminoacetyl)amino-3-(4-methoxyphenyl)-6,7-dihydro-3H,5H-pyrido[3,2,1-ij]quinazoline-1(2H)-one] returned a melting point of 161.4 to 166.6 °C.
As for `COc1cc(C2NC(=O)c3cccc4c3N2CCC4=NO)ccc1O` (stereo not shown) [Example 61, 7-hydroxyimino-3-(4-hydroxy-3-methoxyphenyl)-6,7-dihydro-3H,5H-pyrido[3,2,1-ij]quinazoline-1(2H)one], the figure is 174.4 to 189.3 °C; as for `COc1ccc(C2NC(=O)c3cccc4c3N2CCC4=O)cc1[N+](=O)[O-]` (stereo not shown) [Example 10, 3-(4-methoxy-3-nitrophenyl)-6,7-dihydro-1H,5H-pyrido[3,2,1-ij]quinazoline-1,7-(2H)-dione], 275.4 to 277.1 °C.
`O=C1CCN2c3c1cccc3C(=O)NC2c1ccc(SC(F)(F)F)cc1` (stereo not shown) [Example 45, 3-(4-trifluoromethylthiophenyl)-6,7-dihydro-3H,5H-pyrido[3,2,1-ij]quinazoline-1,7(2H)-dione]: the melting point was in the range of 178.2 to 180.9 °C.
As for `COc1ccc(Cc2nc(=O)c3cccc4c3n2CCC4=O)cc1` [Example 41, 3-(4-methoxyphenyl)methyl-6,7-dihydro-5H-pyrido[3,2,1-ij]quinazoline-1,7-dione], the figure is 81.4 to 82 °C.
`CON=C1CCN2c3c(cccc31)C(=O)NC2c1cccnc1` (stereo not shown) [Example 67, 7-methoxyimino-3-(3-pyridyl)-6,7-dihydro-3H,5H-pyrido[3,2,1-ij]quinazoline-1(2H)-one] showed a melting point of 178.6 to 185.9 °C.
Under `O=C(O)c1ccc(C2NC(=O)c3cccc4c3N2CCC4=O)cc1` (stereo not shown) [Example 22, 3-(4-carboxyphenyl)-6,7-dihydro-3H,5H-pyrido[3,2,1-ij]quinazoline-1,7(2H)-dione] stands 154.3 to 158.9 °C; under `CON=C1CCN2c3c(cccc31)C(=O)NC2c1ccc(-n2ccnc2)cc1` (stereo not shown) [Example 58, 3-[4-(imidazole-1-yl)phenyl]-7-methoxyimino-6,7-dihydro-3H,5H-pyrido[3,2,1-ij]quinazoline-1(2H)-one], 246.3 °C (dec.).
As for `CC(C)Oc1ccc(C2NC(=O)c3cccc4c3N2CCC4=O)cc1` (stereo not shown) [Example 37, 3-(4-isopropoxyphenyl)-6,7-dihydro-3H,5H-pyrido[3,2,1-ij]quinazoline-1,7(2H)-dione], the figure is 175.8 to 177.1 °C; as for `COc1ccc(C2NC(=O)c3ccc(Cl)c4c3N2CCC4=NO)cc1` (stereo not shown) [Example 52, 8-chloro-7-hydroxyimino-3-(4-methoxyphenyl)-6,7-dihydro-3H,5H-pyrido[3,2,1-ij]quinazoline-1(2H)-one], 132.9 to 133.4 °C; as for `COc1ccc(C2NC(=O)c3cccc4c3N2CCC4)cc1` (stereo not shown) [Example 103, 3-(4-methoxyphenyl)-6,7-dihydro-3H,5H-pyrido[3,2,1-ij]quinazoline-1(2H)-one], 143.3 to 154.6 °C.
The compound `COc1ccc(C2NC(=O)c3cc(OC(F)(F)F)cc4c3N2CCC4=NO)cc1` (stereo not shown) [Example 50, 7-hydroxyimino-3-(4-methoxyphenyl)-9-trifluoromethoxy-6,7-dihydro-3H,5H-pyrido[3,2,1-ij]quinazoline-1(2H)-one] came in with a melting point of 232.7 to 234.3 °C.
As for `COc1ccc([C@@H]2NC(=O)c3cccc4c3N2CC[C@H]4N)cc1` [Example 7, (+)-(3R,7R)-7-amino-3-(4-methoxyphenyl)-6,7-dihydro-3H,5H-pyrido-[3,2,1-ij]quinazoline-1(2H)-one], the figure is 110 to 112.7 °C; as for `O=C1CCN2c3c1cccc3C(=O)NC2c1ccc(F)cc1` (stereo not shown) [Example 19, 3-(4-fluorophenyl)-6,7-dihydro-3H,5H-pyrido[3,2,1-ij]quinazoline-1,7(2H)-dione], 216 to 224.8 °C; as for `O=C1CCN2c3c1cccc3C(=O)NC2c1ccc(F)c(F)c1` (stereo not shown) [Example 20, 3-(3,4-difluorophenyl)-6,7-dihydro-3H,5H-pyrido[3,2,1-ij]quinazoline-1,7(2H)-dione], 184 to 189.6 °C.
On to `COc1cccc(C2NC(=O)c3cccc4c3N2CCC4=O)c1` (stereo not shown) [Example 44, 3-(3-methoxyphenyl)-6,7-dihydro-3H,5H-pyrido[3,2,1-ij]quinazoline-1,7(2H)-dione], for which the melting point lay in the range of 126.5 to 142.5 °C.
Under `COc1ccc(C2NC(=O)c3cccc4c3N2CCC4=O)cc1O` (stereo not shown) [Example 28, 3-(3-hydroxy-4-methoxyphenyl)-6,7-dihydro-3H,5H-pyrido[3,2,1-ij]quinazoline-1,7(2H)-dione] stands 204.7 to 212.2 °C; under `COc1cc(C2NC(=O)c3cccc4c3N2CCC4=NO)ccc1F` (stereo not shown) [Example 63, 3-(4-fluoro-3-methoxyphenyl)-7-hydroxyimino-6,7-dihydro-3H,5H-pyrido[3,2,1-ij]quinazoline-1(2H)-one], 245.4 to 246.6 °C; under `O=C1NC(c2ccc(F)c(F)c2)N2CCC(=NO)c3cccc1c32` (stereo not shown) [Example 75, 3-(3,4-difluorophenyl)-7-hydroxyimino-6,7-dihydro-3H,5H-pyrido[3,2,1-ij]quinazoline-1(2H)-one], 218.4 to 222.3 °C.
As for `COc1ccc(C2NC(=O)c3cccc4c3N2CCC4=O)cc1Cl` (stereo not shown) [Example 42, 3-(3-chloro-4-methoxyphenyl)-6,7-dihydro-3H,5H-pyrido[3,2,1-ij]quinazoline-1,7(2H)-dione], the figure is 174.5 to 176.9 °C.
